In brackets after ≈: the same amount, converted by molar mass.
Experiments:
[1] = Human plasma protein binding (equilibrium dialysis); assay type: in vitro ADME
Method: The automated equilibrium dialysis assay in human plasma uses the RED (Rapid Equilibrium Dialysis) Device and sample handling. The assay generally runs over two to three days including delivery of results. After dialysis for 18 hours, plasma and buffer samples are prepared for analysis by liquid chromatography and mass spectrometry. Samples are generally tested in singlicates and quantified by LC/MSMS by using a 7-point calibration curve in plasma. The compounds are pooled together in plasma pools up to 10 compounds. Three reference compounds are used in each run, Propranolol, Metoprolol and Warfarin. Warfarin is used as a control in each pool and Propranolol and Metoprolol are placed randomly in each run. An in-house Excel macro is used for preparation of files for the robot and the mass spectrometer and is also used for the calculations of fraction unbound (fu %) in plasma.

hERG potassium channel = hERG potassium channel (Homo sapiens (Human), UniProt Q12809)
Method: The assay was conducted as follows with all reagents used at room temperature unless otherwise stated.
All compounds were acoustically dispensed in quadruplicate using a Labcyte Echo.
Calculation of results is performed using APC package within Genedata. For the routine normalization of well data with Neutral and Inhibitor control well groups as reference, GeneData Assay Analyzer uses the following equation to normalize the signal values to the desired signal range:
[formula] x is the measured raw signal value of a well is the median of the measured signal values for the Central Reference (Neutral) wells on a plate is the median of the measured signal values for the Scale Reference (Inhibitor) wells on a plate CR is the desired median normalized value for the Central Reference (Neutral) SR is the desired median normalized value for the Scale Reference (Inhibitor)

[2] = target: Estrogen Receptor (ERα) in MCF-7 cells (Homo sapiens (Human), UniProt P03372); test: MCF-7 ER down-regulation assay (immuno-fluorescence); assay type: cell-based; conditions: for % downregulation (in brackets): maximum downregulation
[3] = Thermodynamic solubility (shake-flask); assay type: physicochemical; conditions: phosphate buffer pH 7.4, 24 hours
[4] = Log D (shake flask, 1-octanol/aqueous buffer); assay type: physicochemical
[5] = target: recombinant human Estrogen Receptor alpha ligand binding domain (ER alpha-LBD (GST)) (Homo sapiens (Human), UniProt P03372); test: ERα binding assay (LanthaScreen TR-FRET competition)
recombinant human Estrogen Receptor alpha ligand binding domain (ER alpha-LBD (GST)), sequence (P03372 307-554): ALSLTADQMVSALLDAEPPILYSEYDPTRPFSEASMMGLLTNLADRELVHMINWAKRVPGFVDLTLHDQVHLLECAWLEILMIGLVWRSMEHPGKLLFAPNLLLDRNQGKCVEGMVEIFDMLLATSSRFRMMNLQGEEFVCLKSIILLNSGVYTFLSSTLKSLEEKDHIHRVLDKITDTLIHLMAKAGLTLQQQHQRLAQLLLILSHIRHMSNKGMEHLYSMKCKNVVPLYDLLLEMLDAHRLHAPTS

[6] = aqueous phosphate buffer, 25 °C, pH 7.4, aqueous buffer, thermodynamic from solid
[7] = 1-octanol/aqueous buffer, pH 7.4, pH 7.4

hERG potassium channel, sequence (Q12809 whole entry): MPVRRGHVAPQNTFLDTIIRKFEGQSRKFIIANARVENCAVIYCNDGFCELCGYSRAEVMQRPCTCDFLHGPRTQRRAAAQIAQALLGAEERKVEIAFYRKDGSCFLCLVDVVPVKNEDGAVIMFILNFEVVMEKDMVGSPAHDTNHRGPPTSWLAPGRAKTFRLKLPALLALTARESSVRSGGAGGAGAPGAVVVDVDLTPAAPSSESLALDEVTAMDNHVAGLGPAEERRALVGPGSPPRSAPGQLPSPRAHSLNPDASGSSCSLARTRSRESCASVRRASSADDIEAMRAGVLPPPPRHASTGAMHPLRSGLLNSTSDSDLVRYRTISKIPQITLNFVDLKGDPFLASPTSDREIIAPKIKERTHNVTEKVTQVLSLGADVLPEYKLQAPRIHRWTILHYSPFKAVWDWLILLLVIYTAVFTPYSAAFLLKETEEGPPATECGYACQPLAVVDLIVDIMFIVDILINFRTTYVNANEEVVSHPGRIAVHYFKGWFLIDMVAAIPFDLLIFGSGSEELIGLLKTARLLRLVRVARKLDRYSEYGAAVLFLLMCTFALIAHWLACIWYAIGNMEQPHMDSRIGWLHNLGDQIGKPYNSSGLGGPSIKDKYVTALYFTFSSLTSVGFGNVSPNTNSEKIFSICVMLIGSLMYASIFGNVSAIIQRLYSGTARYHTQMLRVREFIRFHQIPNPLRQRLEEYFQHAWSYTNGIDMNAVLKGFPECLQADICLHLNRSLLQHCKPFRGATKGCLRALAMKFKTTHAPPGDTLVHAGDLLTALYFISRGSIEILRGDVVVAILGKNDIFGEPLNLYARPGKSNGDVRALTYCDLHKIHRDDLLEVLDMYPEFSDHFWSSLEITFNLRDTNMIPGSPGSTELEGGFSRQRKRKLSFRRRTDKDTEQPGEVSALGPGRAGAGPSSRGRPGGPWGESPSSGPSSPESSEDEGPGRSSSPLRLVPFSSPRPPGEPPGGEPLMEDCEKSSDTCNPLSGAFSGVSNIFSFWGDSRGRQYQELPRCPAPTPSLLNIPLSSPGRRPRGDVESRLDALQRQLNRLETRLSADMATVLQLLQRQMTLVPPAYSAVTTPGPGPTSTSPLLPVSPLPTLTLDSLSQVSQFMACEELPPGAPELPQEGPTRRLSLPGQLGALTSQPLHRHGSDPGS
Estrogen Receptor (ERα) in MCF-7 cells, sequence (P03372 whole entry): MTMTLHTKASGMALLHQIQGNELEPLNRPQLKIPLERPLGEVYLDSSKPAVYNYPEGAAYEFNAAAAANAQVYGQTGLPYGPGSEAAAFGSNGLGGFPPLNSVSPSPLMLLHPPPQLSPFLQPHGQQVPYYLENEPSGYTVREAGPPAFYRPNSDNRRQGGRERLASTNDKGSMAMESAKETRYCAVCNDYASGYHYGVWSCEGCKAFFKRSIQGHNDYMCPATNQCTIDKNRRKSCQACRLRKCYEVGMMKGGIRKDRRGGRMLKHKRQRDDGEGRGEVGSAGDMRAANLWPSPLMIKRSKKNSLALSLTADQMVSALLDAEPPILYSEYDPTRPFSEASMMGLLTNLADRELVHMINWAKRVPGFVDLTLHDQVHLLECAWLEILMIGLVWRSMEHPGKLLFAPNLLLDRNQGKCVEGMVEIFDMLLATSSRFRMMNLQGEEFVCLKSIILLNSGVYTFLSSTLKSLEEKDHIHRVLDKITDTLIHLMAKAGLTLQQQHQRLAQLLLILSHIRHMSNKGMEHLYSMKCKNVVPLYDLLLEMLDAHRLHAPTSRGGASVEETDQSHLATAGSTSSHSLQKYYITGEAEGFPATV

Row | Compound | Human plasma protein binding (% free) [1] [% free] | IC50 (hERG potassium channel) [nM] | IC50 [2] [nM] | % downregulation (in brackets) [2] | solubility at 24 h [3, 6] [µM] | logD [4, 7] | IC50 [5] [nM] | solubility at 24 h ([3]; 25° C.) [µM] | LogD pH 7.4 ([4]; pH 7.4) | solubility at 24 h ([3]; aqueous buffer, thermodynamic from solid, 25° C.) [µM] | logD ([4]; pH 7.4)
1 | C[C@@H]1Cc2c([nH]c3ccccc23)[C@@H](c2c(F)ccc(OCCN(C)CCCF)c2F)N1CC1(F)COC1 [Example 154, N-(2-(2,4-difluoro-3-((1R,3R)-2-((3-fluorooxetan-3-yl)methyl)-3-methyl-2,3,4,9-tetrahydro-1H-pyrido[3,4-b]indol-1-yl)phenoxy)ethyl)-3-fluoro-N-methylpropan-1-amine] | 2.7 | 4300 | 0.89 | 79% | 49 (≈ 25.5 µg/mL) | 3.5 | 1.2 | – | – | – | –
2 | C[C@@H]1Cc2c([nH]c3ccccc23)[C@@H](c2cccc(OCCNCCCF)n2)N1CC(F)(F)F [Example 34, 3-fluoro-N-(2-((6-((1S,3R)-3-methyl-2-(2,2,2-trifluoroethyl)-2,3,4,9-tetrahydro-1H-pyrido[3,4-b]indol-1-yl)pyridin-2-yl)oxy)ethyl)propan-1-amine] | 2.2 | 3400 | – | — (41%) | 151 (≈ 70.1 µg/mL) | 3.7 | 190 | – | – | – | –
3 | COc1ccc(O[C@@H](C)CNCCCF)cc1[C@@H]1c2[nH]c3ccccc3c2C[C@@H](C)N1CC(F)(F)CO [Example 48, 2,2-difluoro-3-((1R,3R)-1-(5-(((S)-1-((3-fluoropropyl)amino)propan-2-yl)oxy)-2-methoxyphenyl)-3-methyl-1,3,4,9-tetrahydro-2H-pyrido[3,4-b]indol-2-yl)propan-1-ol] | – | 2700 | 13 | – | 307 (≈ 160 µg/mL) | 2.8 | 4.4 | – | – | – | –
4 | C[C@@H]1Cc2c([nH]c3ccccc23)[C@@H](c2nccc(OCCNCCCF)c2F)N1CC1(F)COC1 [Example 100, 3-fluoro-N-(2-((3-fluoro-2-((1S,3R)-2-((3-fluorooxetan-3-yl)methyl)-3-methyl-2,3,4,9-tetrahydro-1H-pyrido[3,4-b]indol-1-yl)pyridin-4-yl)oxy)ethyl)propan-1-amine] | – | 19000 | 11 | – | > 1000 | 2.5 | 5.2 | – | – | – | –
5 | C[C@@H]1Cc2c([nH]c3ccccc23)[C@@H](c2cncc(OCCNCCCF)c2)N1CC(F)(F)F [Example 101, 3-fluoro-N-(2-((5-((1R,3R)-3-methyl-2-(2,2,2-trifluoroethyl)-2,3,4,9-tetrahydro-1H-pyrido[3,4-b]indol-1-yl)pyridin-3-yl)oxy)ethyl)propan-1-amine] | 8.4 | – | 27 | – | 329 (≈ 153 µg/mL) | 3.3 | 9.2 | – | – | – | –
6 | C[C@@H]1Cc2c([nH]c3ccccc23)[C@@H](c2nccc(OCCNCCCF)c2F)N1CC(F)F [Example 98, N-(2-((2-((1S,3R)-2-(2,2-difluoroethyl)-3-methyl-2,3,4,9-tetrahydro-1H-pyrido[3,4-b]indol-1-yl)-3-fluoropyridin-4-yl)oxy)ethyl)-3-fluoropropan-1-amine] | – | > 32000 | 1.2 | – | 594 (≈ 276 µg/mL) | 2.3 | 1.9 | – | – | – | –
7 | COc1cc(F)c(OCCNCCCF)cc1[C@@H]1c2[nH]c3ccccc3c2C[C@@H](C)N1CC(F)(F)F [Example 28, 3-fluoro-N-(2-(2-fluoro-4-methoxy-5-((1R,3R)-3-methyl-2-(2,2,2-trifluoroethyl)-2,3,4,9-tetrahydro-1H-pyrido[3,4-b]indol-1-yl)phenoxy)ethyl)propan-1-amine] | 1.2 | – | 0.8 | – | 40 (≈ 20.5 µg/mL) | 3.8 | 2.8 | – | – | – | –
8 | C[C@@H]1Cc2c([nH]c3ccccc23)[C@@H](c2nccc(OCCNCCCF)c2Cl)N1CC(F)(F)F [Example 93, N-(2-((3-chloro-2-((1S,3R)-3-methyl-2-(2,2,2-trifluoroethyl)-2,3,4,9-tetrahydro-1H-pyrido[3,4-b]indol-1-yl)pyridin-4-yl)oxy)ethyl)-3-fluoropropan-1-amine] | 0.34 | 6600 | – | – | 0.5 (≈ 0.249 µg/mL) | 4.3 | – | – | – | – | –
9 | COc1cnc(NCCNCCCF)cc1[C@@H]1c2[nH]c3ccccc3c2C[C@@H](C)N1CC(F)(F)F [Example 42] | – | 7100 | 1.9 | – | 349 (≈ 172 µg/mL) | 2.9 | 3.7 | – | – | – | –
10 | C[C@@H]1Cc2c([nH]c3ccccc23)[C@@H](c2cccc(OCCNCCCF)c2C#N)N1CC(F)(F)F [Example 69, 2-(2-((3-fluoropropyl)amino)ethoxy)-6-((1R,3R)-3-methyl-2-(2,2,2-trifluoroethyl)-2,3,4,9-tetrahydro-1H-pyrido[3,4-b]indol-1-yl)benzonitrile] | 2.2 | – | 1.5 | – | 150 (≈ 73.3 µg/mL) | 3.6 | 1.4 | – | – | – | –
11 | C[C@@H]1Cc2c([nH]c3ccccc23)[C@@H](c2nccc(OCCNCCCF)c2F)N1CC1(F)CC1 [Example 99, 3-fluoro-N-(2-((3-fluoro-2-((1S,3R)-2-((1-fluorocyclopropyl)methyl)-3-methyl-2,3,4,9-tetrahydro-1H-pyrido[3,4-b]indol-1-yl)pyridin-4-yl)oxy)ethyl)propan-1-amine] | – | 20000 | 3.8 | – | 285 (≈ 135 µg/mL) | 2.1 | 3.4 | – | – | – | –
12 | CC(CN1[C@H](c2c(Cl)ccc(OCCNCCCF)c2Cl)c2[nH]c3ccc(F)cc3c2C[C@H]1C)C(=O)O (single isomer, unassigned) [Example 130] | 7.8 | – | 1.3 | – | – | – | 1.8 | 854 (≈ 474 µg/mL) | 1.5 | – | –
13 | COc1ccc(OCCNCCC(F)(F)F)cc1[C@@H]1c2[nH]c3ccccc3c2C[C@@H](C)N1CC(F)(F)F [Example 72, 3,3,3-trifluoro-N-(2-(4-methoxy-3-((1R,3R)-3-methyl-2-(2,2,2-trifluoroethyl)-2,3,4,9-tetrahydro-1H-pyrido[3,4-b]indol-1-yl)phenoxy)ethyl)propan-1-amine] | <0.1 | – | 0.49 | – | < 0.2 | 5.2 | 1.4 | – | – | – | –
14 | COc1ccc(OC[C@@H](C)NCCCF)cc1[C@@H]1c2[nH]c3ccccc3c2C[C@@H](C)N1CC(F)(F)CO [Example 50, 2,2-difIuoro-3-((1R,3R)-1-(5-((S)-2-((3-fluoropropyl)amino)propoxy)-2-methoxyphenyl)-3-methyl-1,3,4,9-tetrahydro-2H-pyrido[3,4-b]indol-2-yl)propan-1-ol] | 7.1 | – | 0.81 | 81% | 461 (≈ 240 µg/mL) | 2.8 | 1 | – | – | – | –
15 | Cc1c(OCCNCCCF)ccc(F)c1[C@@H]1c2[nH]c3ccccc3c2C[C@@H](C)N1CC(F)(F)C(=O)O [Example 118, 2,2-difluoro-3-((1R,3R)-1-(6-fluoro-3-(2-((3-fluoropropyl)amino)ethoxy)-2-methylphenyl)-3-methyl-1,3,4,9-tetrahydro-2H-pyrido[3,4-b]indol-2-yl)propanoic acid] | 8.4 | – | 5.5 | – | 111 (≈ 57.9 µg/mL) | 1.8 | 1.2 | – | – | – | –
16 | Cc1c(OCCN(C)CCCF)ccc(F)c1[C@@H]1c2[nH]c3ccccc3c2C[C@@H](C)N1CCC(=O)O [Example 163, 3-((1R,3R)-1-(6-fluoro-3-(2-((3-fluoropropyl)(methyl)amino)ethoxy)-2-methylphenyl)-3-methyl-1,3,4,9-tetrahydro-2H-pyrido[3,4-b]indol-2-yl)propanoic acid] | 49 | – | 1.2 | – | > 1000 | 0.7 | 3.3 | – | – | – | –
17 | COc1ccc(OCCNCCCF)c(F)c1[C@@H]1c2[nH]c3ccccc3c2C[C@@H](C)N1CC(F)F [Example 82, N-(2-(3-((1R,3R)-2-(2,2-difluoroethyl)-3-methyl-2,3,4,9-tetrahydro-1H-pyrido[3,4-b]indol-1-yl)-2-fluoro-4-methoxyphenoxy)ethyl)-3-fluoropropan-1-amine] | 1.9 | – | 0.042 | – | – | – | 0.8 | – | – | 475 (≈ 234 µg/mL) | 2.9
18 | C[C@@H]1Cc2c([nH]c3ccccc23)[C@@H](c2c(Cl)ccc(OCCNCCCF)c2F)N1CC(F)(F)F [Example 78, N-(2-(4-chloro-2-fluoro-3-((1R,3R)-3-methyl-2-(2,2,2-trifluoroethyl)-2,3,4,9-tetrahydro-1H-pyrido[3,4-b]indol-1-yl)phenoxy)ethyl)-3-fluoropropan-1-amine] | 0.21 | – | 0.12 | – | 26 (≈ 13.4 µg/mL) | 4 | 1.3 | – | – | – | –
19 | C[C@@H]1Cc2c([nH]c3ccccc23)[C@@H](c2cc(OCCNCCCF)ncc2F)N1CC(F)(F)F [Example 39, 3-fluoroN-(2-((5-fluoro-4-((1R,3R)-3-methyl-2-(2,2,2-trifluoroethyl)-2,3,4,9-tetrahydro-1H-pyrido[3,4-b]indol-1-yl)pyridin-2-yl)oxy)ethyl)propan-1-amine] | – | 3900 | 0.26 | – | 259 (≈ 125 µg/mL) | 3.6 | 1.4 | – | – | – | –

Reference: US10221173B2, “Chemical compounds” (AstraZeneca AB, priority 2017, dated 2019)
